Assay results reported in US20080085889A1, “Amidomethyl-Substituted 1-(Carboxyalkyl) Cyclopentyl-Carbonylamino-Benzazepine-N-Acetic Acid Compounds, Process and Intermediate Products for Their Preparation and Pharmaceutical Compositions Containing Them” (SOLVAY PHARMACEUTICALS GmbH, priority 2003, published 2008).

Legend:
[1] = biological target: T1, His6-tagged hSEP ectodomain (Homo sapiens, UniProt Q495T6); test: In vitro investigation of the hSEP-inhibitory action (fluorescence-quenched Big-ET-1 analogue, HPLC); type: biochemical
T1 construct: His6-tagged hSEP ectodomain; His6; purchased Innogenetics, Ghent, Belgium
T1 sequence (Q495T6 49-779 limits assumed): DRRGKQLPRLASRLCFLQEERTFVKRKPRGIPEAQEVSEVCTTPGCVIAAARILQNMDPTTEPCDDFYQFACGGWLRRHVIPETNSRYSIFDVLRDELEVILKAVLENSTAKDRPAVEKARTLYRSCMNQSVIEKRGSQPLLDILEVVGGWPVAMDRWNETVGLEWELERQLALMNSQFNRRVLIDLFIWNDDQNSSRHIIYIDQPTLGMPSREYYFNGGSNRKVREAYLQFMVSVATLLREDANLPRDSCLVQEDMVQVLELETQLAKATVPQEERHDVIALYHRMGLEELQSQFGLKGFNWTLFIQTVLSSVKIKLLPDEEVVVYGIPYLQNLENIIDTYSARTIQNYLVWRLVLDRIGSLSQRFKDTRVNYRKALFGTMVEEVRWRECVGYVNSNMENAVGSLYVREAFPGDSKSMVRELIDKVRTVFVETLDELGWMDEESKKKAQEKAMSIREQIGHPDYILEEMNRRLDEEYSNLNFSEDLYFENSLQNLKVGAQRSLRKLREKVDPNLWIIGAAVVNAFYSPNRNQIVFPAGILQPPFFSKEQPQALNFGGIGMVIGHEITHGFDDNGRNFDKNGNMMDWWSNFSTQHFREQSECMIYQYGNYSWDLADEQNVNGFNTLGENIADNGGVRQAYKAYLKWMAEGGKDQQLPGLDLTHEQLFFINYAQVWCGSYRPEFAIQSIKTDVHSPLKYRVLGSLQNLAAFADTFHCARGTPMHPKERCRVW
Method: 2. In Vitro Investigation of the hSEP-Inhibitory Action of the Substances
In this test, the measure of the inhibitory activity of the substances which was determined was their IC50 value. The IC50 value of a test substance having enzyme-inhibitory activity is that concentration of the test substance at which 50% of the enzymatic activity of the hSEP is blocked.
The test and the HPLC procedure were carried out analogously to the manner set forth above for determining the in vitro inhibitory action of the test substances on NEP. 10 nM phosphoramidon served as standard inhibitor in the HPLC procedure. In this test model the test substances of Formula I listed in the following Table 2 had the IC50 values given below: […]

[2] = system: formation of ET-1 from Big-ET-1; test: In vivo inhibition of the Big-ET-1-induced blood pressure increase in anaesthetised rats, i.v. single dose; parameters: species or system Rats (Sprague-Dawley); conditions: Rattus norvegicus, iv, 10 μmol/kg, 5 min before 0.5 nmol/kg Big-ET-1, negative values indicate inhibition, read-out: % substance-related inhibition of the maximum Big-ET effect on SAP vs. control
From the text: 3. In Vivo Investigation of the Inhibitory Action of the Substances on the Formation of ET-1 from Big-ET-1 in Rats
ET-1 is an endogenous substance with strong vasoconstrictive effect. An increase in the ET-1 level results in an increase in blood pressure. Upon infusion of Big-ET-1, an increase in blood pressure takes place to the extent that ET-1 is produced therefrom by enzyme-catalysed cleavage of Big-ET-1. As a measurement of the enzyme-inhibiting action of the substances, their inhibitory action on the increase in blood pressure induced by infusion of Big-ET-1 was determined.
Rats (Sprague-Dawley, CRLD=Charles River) were anaesthetised with 1 ml/kg Rompun/Ketavet 1:1. A pressure transducer (Statham) was inserted into the carotid artery to measure blood pressure. One jugular vein was cannulated for administering the substance, and the other for administering Big-ET-1. After a 20-minute equilibration phase, the rats were administered the corresponding test substance of Formula I at a dose of as a rule 10 μmol/kg (if not stated otherwise), or a vehicle. Five minutes later, 0.5 nmol/kg Big-ET-1 was infused over a period of one minute. The systolic (SAP=systolic arterial pressure) and the diastolic (DAP=diastolic arterial pressure) blood pressure and the heart rate were each measured before administration of the substance, then immediately before administration of Big-ET and in each case every five minutes over a period of 30 minutes after Big-ET administration using the pressure transducer in known manner. The maximum Big-ET-induced increase in blood pressure and the maximum lowering of heart rate were calculated from the measured values as the difference between the value measured at the moment of maximum development of the Big-ET action (typically after 5 min.) and the value measured before Big-ET infusion. Furthermore, the integral of the blood pressure curve under the influence of Big-ET-1 was determined over 30 minutes (AUC=area under the curve).
The percentage inhibition of the maximum Big-ET-1 effect on the systolic arterial blood pressure (SAP) after i.v. administration of the test substances compared with administration of a vehicle is set forth in the following Table 3a:
Data given in table 3a as negative values indicate an inhibitory effect.

[3] = biological target: T2, soluble, human recombinant NEP (Homo sapiens, UniProt P08473); test: In-vitro investigation of the NEP inhibitory action (fluorescence-quenched Big-ET-1 analogue, HPLC); type: biochemical
T2 construct: soluble, human recombinant NEP; purchased Prof; Crine, University of Montreal, Canada
Method: 1. In-Vitro Investigation of the NEP Inhibitory Action of the Substances
In this test, the measure of the inhibitory activity of the substances which was determined was their IC50 value. The IC50 value of a test substance having enzyme-inhibitory activity is that concentration of the test substance at which 50% of the enzymatic activity of the NEP is blocked.
70 μl test buffer, 10 μl enzyme working solution and 10 μl test substance solution were mixed in an Eppendorf vessel and preincubated at 37° C. for 15 minutes (=min.). Then 10 μl substrate stock solution was added and the test batch was incubated for 60 minutes at 37° C. The enzymatic reaction was then ended by 5-minutes' heating to 95° C. After centrifugation (Heraeus Biofuge B, 3 min.), the liquid supernatant was investigated by HPLC in accordance with the following specifications.
The substrate was separated from cleavage products by means of reversed-phase HPLC (CC 125/4 Nucleosil 300/5 C18 RP column with CC 8/4 Nucleosil 100/5 C18 precolumn, from Macherey-Nagel, Düren, Germany). For this, 60 μl of the test mixture was injected into the HPLC sample injection point and the column was then eluted at a flow rate of 1 ml/min with the following gradient:
Mobile Phase B: 100% acetonitrile+0.5M H3PO4
All the peptides were detected by absorption at 214 nm and by fluorescence with an excitation wavelength of 328 nm and an emission wavelength of 393 nm.
Upon enzymatic cleavage of the peptide, the fluorophore (=Mca) and the quencher end up in different peptide fragments, which reduces the effectiveness of the quench. […] The increasing fluorescence signal (corresponds to the area, A) of the HPLC peak of the peptide with the non-quenched Mca fluorophore is used for the further calculations. This signal was compared for samples with (=Ainhib) and without (=Acontrol) test substance of Formula I, and the value “% inhibition” was calculated on the basis of the respective peak areas according to the following formula: % inhibition=100*(1−Ainhib/Acontrol)
All the samples were measured in duplicates and average values were calculated therefrom. A standard inhibitor (10 nM thiorphan) and a solvent control (0.1% DMSO) were likewise measured as quality controls on each run. In this test model the test substances of Formula I listed in the following Table 1 had the IC50 values given below: […]

[4] = system: TUNEL positive cells in heart, liver and kidney; test: Adriamycin toxicity: determination of anti-apoptotic activity (TUNEL staining); type: in vivo, Wistar rats; conditions: adriamycin alone, 3 x 5 mg/kg i.p. (cumulative 15 mg/kg), vehicle minipump; day 5; ± SEM
Method: 2. Adriamycin Toxicity: Determination of Anti-Apoptotic Activity
Wistar rats, weighing 200-250 g, were anesthetized with chloral hydrate, 400 mg/kg, and Alzet osmotic minipumps (2 ML1), were implanted subcutaneously (=s.c.). The pumps had been filled with either vehicle or solution containing compounds of the invention at the appropriate concentration and primed prior to implantation. Animals subsequently received adriamycin at three equal daily doses of 5 mg/kg i.p. on days 1, 2 and 3. Rats were euthanized 5 days after the first injection of adriamycin and transcardially perfused with a solution containing 4% paraformaldehyde in phosphate buffer. The heart, liver and kidneys were subsequently removed and embedded in parafin.
TUNEL staining: For terminal deoxynucleotide transferase-mediated dUTP nick end-label (TUNEL) based histological analysis, organs were post-fixed for 5 days at 4° C. and paraffin-embedded. TUNEL staining was performed on 10 μm thick paraffin sections using the ApopTag Peroxidase kit (S 7100, Oncor Appligene, Heidelberg, Germany) according to the manufacturer's instructions. Briefly, after pretreatment with proteinase K and quenching of endogenous peroxidase, sections were incubated in equilibration buffer followed by working strength TdT enzyme (incorporating digoxigenin labeled dUTP nucleotides to free 3′-OH DNA termini), (1 hr, 37° C.). Sections were incubated in stop/wash buffer (30 min, 37° C.), then with anti-digoxigenin-peroxidase conjugate (30 min) followed by DAB substrate (Sigma, Deisenhofen, Germany) and lightly counterstained with methylgreen.
Wistar rats were administered adriamycin at the cumulative dose of 15 mg/kg i.p. The test substance of Example 4 was administered s.c. at the doses of 20, 50 or 100 mg/kg and day by means of Alzet osmotic minipumps over 5 days. Animals were euthanized and transcardially perfused 5 days after the first injection of adriamycin and the heart, kidney and liver were processed for TUNEL staining. Densities of TUNEL positive cells were determined as described in the methods. Results for each organ (heart, liver, kidney) were measured as mean densities of TUNEL positive cells ±SEM for the control groups and the different test groups (20, 50 or 100 mg/kg and day of test compound of Example 4) and listed in table 8 below.
Comparisons between groups were performed by means of Student's t test (**P<0.01; ***P<0.001 compared to vehicle treated rats).

T2 sequence (P08473 52-750 limits assumed): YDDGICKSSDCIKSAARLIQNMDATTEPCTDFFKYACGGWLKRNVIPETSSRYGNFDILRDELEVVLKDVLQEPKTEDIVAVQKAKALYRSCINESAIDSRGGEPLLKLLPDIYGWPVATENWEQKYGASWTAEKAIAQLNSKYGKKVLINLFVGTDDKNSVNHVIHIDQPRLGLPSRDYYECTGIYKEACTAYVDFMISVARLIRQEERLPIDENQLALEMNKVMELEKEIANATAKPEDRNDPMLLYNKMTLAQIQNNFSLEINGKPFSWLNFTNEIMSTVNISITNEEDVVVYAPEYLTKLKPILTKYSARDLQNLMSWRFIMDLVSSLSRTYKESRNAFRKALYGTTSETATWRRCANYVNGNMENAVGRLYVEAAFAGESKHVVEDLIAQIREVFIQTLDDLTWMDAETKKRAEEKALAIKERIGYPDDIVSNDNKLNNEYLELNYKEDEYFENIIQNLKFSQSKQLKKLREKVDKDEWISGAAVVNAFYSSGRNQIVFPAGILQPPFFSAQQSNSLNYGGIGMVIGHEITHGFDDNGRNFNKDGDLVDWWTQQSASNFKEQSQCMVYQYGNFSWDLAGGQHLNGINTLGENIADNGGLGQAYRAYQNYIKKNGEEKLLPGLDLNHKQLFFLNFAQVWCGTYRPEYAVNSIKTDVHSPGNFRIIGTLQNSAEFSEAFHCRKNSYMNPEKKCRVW

IC50 [1] [nM]	IC50 [3] [nM]	Compound	change in vivo at 10 µmol/kg [2] [%]	TUNEL positive cells, Heart [4] [cells/mm3 × 102]	TUNEL positive cells, Kidney [4] [cells/mm3 × 102]	TUNEL positive cells, Liver [4] [cells/mm3 × 102]
15	20	COCCNC(=O)CC(CC1(C(=O)N[C@H]2CCc3ccccc3N(CC(=O)O)C2=O)CCCC1)C(=O)O (mixture of isomers) [Example 16]	-45			
24	< 1	O=C(O)CN1C(=O)[C@@H](NC(=O)C2(CC(CC(=O)NC3CCCCNC3=O)C(=O)O)CCCC2)CCc2ccccc21 (mixture of isomers) [Example 17]	-46			
36.3	12.9	COc1ccc(C(=O)CNC(=O)CC(CC2(C(=O)N[C@H]3CCc4ccccc4N(CC(=O)O)C3=O)CCCC2)C(=O)O)cc1 (mixture of isomers) [Example 20]	-67			
17.3	10.6	O=C(O)CN1C(=O)[C@@H](NC(=O)C2(CC(CC(=O)NCC3CC3)C(=O)O)CCCC2)CCc2ccccc21 (mixture of isomers) [Example 23]	-40			
27	11.1	COc1ccc(CNC(=O)CC(CC2(C(=O)N[C@H]3CCc4ccccc4N(CC(=O)O)C3=O)CCCC2)C(=O)O)cc1 (mixture of isomers) [Example 24]	-54			
4	10	CCN(CCCCN)C(=O)CC(CC1(C(=O)NC2CCc3ccccc3N(CC(=O)O)C2=O)CCCC1)C(=O)O (racemic) [Example 76, 4-[(4-aminobutyl)(ethyl)amino]-2-{[1-({[1-(carboxymethyl)-2-oxo-2,3,4,5-tetrahydro-1H-1-benzazepin-3-yl]amino}carbonyl)cyclopentyl]methyl}-4-oxobutanoic acid]	-93			
		COc1cccc2c1C(=O)c1c(O)c3c(c(O)c1C2=O)C[C@@](O)(C(=O)CO)C[C@@H]3O[C@H]1C[C@H](N)[C@H](O)[C@H](C)O1 [Adriamycin, adriamycin, reference compound]		5.417 ± 0.146	9.438 ± 0.198	10.420 ± 0.275
4	12	CN(C)CCN(C)C(=O)CC(CC1(C(=O)NC2CCc3ccccc3N(CC(=O)O)C2=O)CCCC1)C(=O)O (stereo not drawn) [Example 59, 2-{[1-({[1-(carboxymethyl)-2-oxo-2,3,4,5-tetrahydro-1H-1-benzazepin-3-yl]amino}carbonyl)cyclopentyl]methyl}-4-[[2-(dimethylamino)ethyl](methyl)amino]-4-oxobutanoic acid]	-98			
